Data from article PMC7730205, “Different Sensitivity of Control and MICU1- and MICU2-Ablated Trypanosoma cruzi Mitochondrial Calcium Uniporter Complex to Ruthenium-Based Inhibitors” (International Journal of Molecular Sciences, 2020).

What was measured:
T. cruzi epimastigotes = test: Epimastigote growth in LIT medium; type: cell-based, Trypanosoma cruzi; settings: 1 µM, 5 µM and 10 µM
Method: We analyzed the growth rate of epimastigotes in LIT medium at different Ru265 concentrations (1 µM, 5 µM, and 10 µM). […] The presence of metabolic inhibitors affects attachment and invasion of T. cruzi trypomastigotes to mammalian cells since these are an active process which depends on the expenditure of parasite energy. Preincubation of trypomastigotes for 30 min with antimycin A, which blocks electron transport from cytochrome b to c1, decreased the ability of trypomastigotes to attach to glutaraldehyde-fixed cells (Figure 4b) and invade intact host cells (Figure 4c).
Figure 4 Effect of Ru265 on Trypanosoma cruzi. (a) Effect of Ru265 on epimastigote growth. […] After 1 h of incubation at 37 °C, the cells were washed, and the number of attached trypomastigotes was counted. […] After 4 h of incubation at 37 °C, the cells were washed, and the number of intracellular parasites was counted. […] (f) Routine respiration (initial oxygen flux values), leak respiration after the addition of 0.5 µg/mL of oligomycin A, and electron transfer system (ETS) capacity after the sequential additions of FCCP (0.2 μM each) were measured for each condition. […] (g) Representative experiment showing mitochondrial Ca^2+ uptake by intact epimastigotes in relative fluorescence units (RFU). […] (h) Changes in fluorescence (before and after ionomycin addition) from three experiments like that shown in panel (g). […]

[1] = test system: T. cruzi epimastigotes (intact, non-permeabilized); test: Mitochondrial Ca2+ uptake in intact epimastigotes using Rhod-2 AM; type: cell-based, Trypanosoma cruzi
Method: Figure 4 Effect of Ru265 on Trypanosoma cruzi. (a) Effect of Ru265 on epimastigote growth. Growth of control epimastigotes in LIT medium in the presence of 1 μM, 5 μM, and 10 μM Ru265. (b) Effect of Ru265 on trypomastigote attachment. Trypomastigotes were pretreated for 30 min with 1 μM antimycin A (AA) or 10 μM Ru265 and added to glutaraldehyde-fixed Vero cells. After 1 h of incubation at 37 °C, the cells were washed, and the number of attached trypomastigotes was counted. […] (c) Effect of Ru265 on trypomastigotes infection. Trypomastigotes were pretreated for 30 min with 1 μM antimycin A or 10 μM Ru265 and added to Vero cells. After 4 h of incubation at 37 °C, the cells were washed, and the number of intracellular parasites was counted. […] (f) Routine respiration (initial oxygen flux values), leak respiration after the addition of 0.5 µg/mL of oligomycin A, and electron transfer system (ETS) capacity after the sequential additions of FCCP (0.2 μM each) were measured for each condition. […] (g) Representative experiment showing mitochondrial Ca^2+ uptake by intact epimastigotes in relative fluorescence units (RFU). […] (h) Changes in fluorescence (before and after ionomycin addition) from three experiments like that shown in panel (g). […]

## N.N.N.N.N.N.N.N.[Cl][Ru+3].[N-]=[Ru][Cl] [Ru265]
T. cruzi epimastigotes
  Toxicity to epimastigotes: nontoxic at the concentrations tested
T. cruzi epimastigotes; control epimastigotes
  Effect on growth rate of epimastigotes: does not affect the growth rate
[1]; 50 µM Ru265 for 30 min, nigericin + ionomycin, three experiments
  Amount of Ca2+ taken up by mitochondria of intact cells (Rhod-2 fluorescence): no significant difference
[1]; intact epimastigotes
  Permeability in trypanosomes (inferred from lack of effect on intact cells): low permeability
